This note sets out measurements from US20140050779A1, “[…]-2 INHIBITORS AND USES THEREOF” (SINGAPORE HEALTH SERVICES PTE. LTD., priority 2011, published 2014).

The target in this experiment is T1, hM1 (Homo sapiens, UniProt P11229).
T1 sequence (P11229 1-460): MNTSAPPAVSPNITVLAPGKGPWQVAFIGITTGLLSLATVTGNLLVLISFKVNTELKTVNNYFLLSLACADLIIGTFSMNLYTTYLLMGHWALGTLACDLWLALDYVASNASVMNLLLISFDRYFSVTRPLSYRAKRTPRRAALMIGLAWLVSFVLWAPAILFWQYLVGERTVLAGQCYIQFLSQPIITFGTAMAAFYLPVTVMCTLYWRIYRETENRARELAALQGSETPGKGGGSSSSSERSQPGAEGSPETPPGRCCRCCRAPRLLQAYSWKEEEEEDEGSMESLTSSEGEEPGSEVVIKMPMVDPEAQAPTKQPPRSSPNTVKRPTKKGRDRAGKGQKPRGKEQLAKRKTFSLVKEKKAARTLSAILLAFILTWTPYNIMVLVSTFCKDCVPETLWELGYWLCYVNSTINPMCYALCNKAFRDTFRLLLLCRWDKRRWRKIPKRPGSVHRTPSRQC
Description: himbacine binding to cloned muscarinic receptor subtypes. The conditions noted are these: cloned receptor subtype; data not shown.

`C[C@@H]1OC(=O)[C@H]2C[C@H]3CCCC[C@@H]3[C@@H](/C=C/[C@H]3CCC[C@H](C)N3C)[C@@H]12` [himbacine]: the Kd (as a rule, the free concentration of one partner at which half of the binding sites on the other are occupied at equilibrium, for simple one-to-one binding) amounted to 83 nM.
